The values that follow come from patent US20060135551A1, “Novel heterocyclic compounds and their pharmaceutical compositions” (priority 2004, published 2006).

The target of this assay is T1, Recombinant CETP enzyme (Homo sapiens, UniProt P11597).
T1 construct: purchased Cardiovascular Targets
T1 sequence (P11597 18-493): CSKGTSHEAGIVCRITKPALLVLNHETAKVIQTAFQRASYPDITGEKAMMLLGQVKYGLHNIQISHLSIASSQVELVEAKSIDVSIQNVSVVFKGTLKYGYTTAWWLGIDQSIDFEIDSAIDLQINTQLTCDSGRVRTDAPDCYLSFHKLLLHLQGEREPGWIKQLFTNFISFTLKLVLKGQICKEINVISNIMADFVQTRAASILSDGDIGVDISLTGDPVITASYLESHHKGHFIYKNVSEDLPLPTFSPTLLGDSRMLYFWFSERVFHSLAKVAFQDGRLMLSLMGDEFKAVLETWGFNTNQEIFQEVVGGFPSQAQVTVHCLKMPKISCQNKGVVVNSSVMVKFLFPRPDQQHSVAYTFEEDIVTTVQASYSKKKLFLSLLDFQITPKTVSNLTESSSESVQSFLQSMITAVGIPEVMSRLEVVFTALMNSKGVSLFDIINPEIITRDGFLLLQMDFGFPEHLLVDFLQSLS
Kind of assay: In vitro fluorescence-based CETP inhibition assay (BODIPY-CE transfer from donor to acceptor microemulsions). In kind it is biochemical. As to conditions: recombinant CETP 0.14 ng/μl; transfer of fluorescent cholesteryl ester monitored over 2 hours; compared to DMSO controls. As for the experimental part:
An in vitro fluorescence-based assay to identify CETP inhibitors was developed from modifications of the protocols outlined in Bisgaier et al., J Lipid Res., 34(9): 1625-34 (1993) and Epps et al., Chem Phys Lipids., 77(1): 51-63 (1995). Acceptor and donor lipid microemulsions were prepared according to Bisgaier et al., 1993, except that the buffer was prepared with 0.67 ug/ml human HDL (Calbiochem). Donor microemulsions contained the fluorescent cholesteryl ester analog BODIPY-CE (Molecular Probes), characterized by excitation and emission maxima at 503 nm and 518 nm, respectively. The CETP-mediated transfer of fluorescent cholesteryl ester to acceptor particles was monitored over a 2-hour time period using the FAM filter set (excitation 492 nm, emission 516 nm) in an MX3000P fluorescent plate reader (Stratagene). Recombinant CETP enzyme (Cardiovascular Targets) was used at 0.14 ng/μl, final concentration, to achieve lipid transfer. CETP inhibition by compounds was compared to DMSO controls and graphed as a percentage of the control CETP activity over 2 hours. The IC50 curves for CETP inhibition were generated from the activity profiles. Active compounds were also tested for CETP inhibition as above, but in the presence of 3% human serum albumin, fraction V (Calbiochem).
Using this protocol, IC50 data for CETP inhibition were obtained.

SMILES strings stand for the structures.

Turning to `CCOC(=O)N1c2c(c(C)nn2C)C(N(Cc2cc(C(F)(F)F)cc(C(F)(F)F)c2)C(=O)OC)CC1CC` (stereo not shown) [Example E1, 4-[(3,5-Bis-trifluoromethyl-benzyl)-methoxycarbonyl-amino]-6-ethyl-1,3-dimethyl-1,4,5,6-tetrahydro-pyrazolo[3,4-b]pyridine-7-carboxylic acid ethyl ester], the IC50 stood at 4.6 µM.

What is called IC50 is the concentration at which inhibition is half-maximal.
